Test results taken from the supplement of paper PMC10307832.

Key:
Experiment in all cases: relative viability (nuclei count vs DMSO), 5 days (fraction); higher = more cells survive
BAM7 + Navitoclax = compound: CCOC1=CC=CC=C1N=NC2=C(NN(C2=O)C3=NC(=CS3)C4=CC=CC=C4)C [BAM7] + CC1(C)CCC(c2ccc(Cl)cc2)=C(CN2CCN(c3ccc(C(=O)NS(=O)(=O)c4ccc(N[C@H](CCN5CCOCC5)CSc5ccccc5)c(S(=O)(=O)C(F)(F)F)c4)cc3)CC2)C1 [Navitoclax] (partner 0.5 µM)
How it was run: (§1)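 Medians of duplicate plates are given as relative viability. That measure is the nuclei count in treated wells divided by the count in vehicle wells. Counts were taken on 4× images of lung cancer cell lines in 1536-well plates, 5 days after pin-tool dosing the day after seeding with one drug alone or a fixed anchor-drug dose plus five library-drug doses (not always all listed) in √10 steps.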

BAM7 + Phenformin = compound: CCOC1=CC=CC=C1N=NC2=C(NN(C2=O)C3=NC(=CS3)C4=CC=CC=C4)C [BAM7] + N=C(N)NC(=N)NCCc1ccccc1 [Phenformin] (partner 250 µM)
How it was run: as §1

[1] = compound: CCn1c(-c2nonc2N)nc2c(C#CC(C)(C)O)ncc(OC[C@H]3CCCNC3)c21 + CCNC(=O)c1noc(-c2cc(C(C)C)c(O)cc2O)c1-c1ccc(CN2CCOCC2)cc1 [Luminespib] (partner 0.01 µM)
How it was run: as §1

[2] = compound: CCn1c(-c2nonc2N)nc2c(C#CC(C)(C)O)ncc(OC[C@H]3CCCNC3)c21 + Cc1nc(NC(=O)N2CCC[C@H]2C(N)=O)sc1-c1ccnc(C(C)(C)C(F)(F)F)c1 [Alpelisib] (partner 2 µM)
How it was run: as §1

| Cell Line | relative viability (BAM7 + Navitoclax; first compound 0.5 µM) | relative viability (BAM7 + Navitoclax; first compound 5 µM) | relative viability (BAM7 + Navitoclax; first compound 15.81 µM) | relative viability (BAM7 + Navitoclax; first compound 50 µM) | relative viability (BAM7 + Phenformin; first compound 0.5 µM) | relative viability (BAM7 + Phenformin; first compound 5 µM) | relative viability (BAM7 + Phenformin; first compound 15.81 µM) | relative viability (BAM7 + Phenformin; first compound 50 µM) | relative viability ([1]; first compound 0.01 µM) | relative viability ([1]; first compound 0.03162 µM) | relative viability ([1]; first compound 0.1 µM) | relative viability ([1]; first compound 0.3162 µM) | relative viability ([1]; first compound 1 µM) | relative viability ([2]; first compound 0.01 µM) | relative viability ([2]; first compound 0.03162 µM) | relative viability ([2]; first compound 0.1 µM) | relative viability ([2]; first compound 0.3162 µM) | relative viability ([2]; first compound 1 µM) |
| --- | --- | --- | --- | --- | --- | --- | --- | --- | --- | --- | --- | --- | --- | --- | --- | --- | --- | --- |
| NCI-H441 | 0.688 | 0.772 | 0.635 | 0.956 | 0.866 | 1.1 | 0.779 | 0.923 | 0.434 | 0.312 | 0.349 | 0.379 | 0.367 | 0.653 | 0.891 | 0.749 | 0.683 | 0.717 |
| NCI-H460 | 1.36 | 1.36 | 1.03 | 1.08 | 0.521 | 0.573 | 0.513 | 0.534 | 0.0307 | 0.0313 | 0.0273 | 0.031 | 0.0375 | 0.439 | 0.496 | 0.477 | 0.447 | 0.437 |
| NCI-H520 | 1.09 | 1.2 | 1.11 | 1.18 | 0.668 | 0.573 | 0.704 | 0.707 | 0.188 | 0.222 | 0.188 | 0.238 | 0.182 | 1.01 | 0.883 | 0.605 | 0.851 | 0.547 |
| NCI-H596 | 0.82 | 0.937 | 0.92 | 1.06 | 0.751 | 0.804 | 0.705 | 0.811 | 1.06 | 1.13 | 1.17 | 0.935 | 1.13 | 0.365 | 0.522 | 0.482 | 0.487 | 0.503 |
| NCI-H647 | 1.11 | 1.16 | 0.899 | 1.14 | 0.54 | 0.443 | 0.539 | 0.591 | 0.327 | 0.177 | 0.203 | 0.127 | 0.193 | 1.2 | 1.17 | 1.02 | 1.03 | 1.23 |
| NCI-H727 | 0.419 | 0.458 | 0.471 | 0.441 | 0.42 |  | 0.576 | 0.603 | 0.324 | 0.621 | 0.311 | 0.313 | 0.389 | 0.576 | 0.527 | 0.714 | 0.608 | 0.479 |
| NCI-H838 | 1.2 | 1.19 | 1.14 | 1.12 | 0.544 | 0.572 | 0.597 | 0.648 | 0.309 | 0.308 | 0.296 | 0.227 | 0.304 | 1.05 | 1.02 | 1.03 | 0.979 | 0.989 |
| NCI-H1355 | 0.856 | 0.94 | 0.773 | 0.957 | 0.462 | 0.421 | 0.425 | 0.458 | 0.716 | 0.688 | 0.746 | 0.695 | 0.693 | 0.863 | 0.732 | 0.786 | 0.825 | 0.82 |
| NCI-H1395 | 1.15 | 1.14 | 1.1 | 1.13 | 0.444 | 0.522 | 0.446 | 0.538 | 0.78 | 0.705 | 0.546 | 0.596 | 0.695 | 0.986 | 1.35 | 1.01 | 0.79 | 0.76 |
| NCI-H1437 | 1.18 | 1.07 | 0.964 | 1.03 | 0.263 | 0.23 | 0.3 | 0.275 | 1.07 | 1.13 | 1.21 | 1.09 | 1.17 | 0.895 | 0.964 | 0.965 | 0.778 | 0.902 |
| NCI-H1651 | 1.01 | 1.01 | 0.943 | 1.09 | 0.306 | 0.303 | 0.343 | 0.354 | 0.969 | 0.875 | 0.811 | 0.755 | 0.953 | 1.01 | 0.879 | 0.937 | 0.917 | 1.19 |
| NCI-H1666 | 0.938 | 1.11 | 0.912 | 0.858 | 0.592 | 0.588 | 0.588 | 0.563 | 0.948 | 0.933 | 1.05 | 0.959 | 1.04 | 0.874 | 1.1 | 0.992 | 0.792 | 0.831 |
| NCI-H1734 | 0.877 | 0.948 | 0.861 | 0.771 | 0.41 | 0.491 | 0.392 | 0.401 | 0.189 | 0.194 | 0.177 | 0.145 | 0.219 | 0.652 | 0.624 | 0.631 | 0.655 | 0.658 |
| NCI-H1755 | 1.04 | 1.04 | 0.886 | 1.01 | 0.657 | 0.657 | 0.611 | 0.645 | 0.455 | 0.519 | 0.556 | 0.513 | 0.423 | 0.943 | 0.944 | 0.896 | 0.916 | 0.981 |
| NCI-H1792 | 0.621 | 0.691 | 0.783 | 0.61 | 0.333 | 0.219 | 0.274 | 0.369 | 0.593 |  | 0.566 | 0.416 | 0.47 | 0.776 | 0.697 | 0.667 | 0.596 | 0.791 |
| NCI-H1793 | 0.401 | 0.565 | 0.437 | 0.411 | 0.342 | 0.338 | 0.348 | 0.317 | 0.24 | 0.237 | 0.212 | 0.189 | 0.233 | 0.815 | 0.812 | 0.508 | 0.592 | 0.64 |
| NCI-H1915 | 0.756 | 0.776 | 0.803 | 0.807 | 0.377 | 0.374 | 0.405 | 0.382 | 0.713 | 0.898 | 0.741 | 0.755 | 0.724 | 1.06 | 1.06 | 1.02 | 1.04 | 1.08 |
